Test results taken from PMC12261233, “Photoactivatable Cyclometalated Ir(III) Compound Penetrates the Blood-Brain Barrier in 3D Spheroidal and Advanced 3D Organoid Models of Inherently Resistant and Aggressive Brain Tumors” (ACS Pharmacology & Translational Science, 2025).

Experiments:
Assay type in all cases: cell-based, human
[1] = test system: U87MG spheroids; test: Calcein AM/PPI staining of Matrigel-embedded spheroids after single-spheroid 405 nm irradiation (confocal); conditions: for change in calcein AM/PPI ratio with blue light irradiation: 405 nm irradiated; for change in calcein AM/PPI ratio under dark conditions: versus control
Description: Spheroids were treated with iridium complexes at IC50 concentrations (Table S4) for 3 h, followed by 405 nm laser irradiation for 60 s. After 24 h in a drug-free medium, spheroids were stained for analysis. Significant differences in live and dead cell counts were observed between irradiated and nonirradiated samples for Ir3 and Ir4, with morphological disruptions noted in treated spheroids, including reduced diameters and metabolically active cells concentrated in the core (Figure , panel III, inserts 2* and 4*).
Matrigel-embedded spheroids were treated for 3 h with the investigated compounds at concentrations corresponding to the IC50 determined for 3D cultures. Then, the samples were irradiated for 60 s with 405 nm laser light (1 mW) and placed in a drug-free, 3D forming medium for an additional 21 h. Then, treated and irradiated (or dark incubated controls) were stained with Hoechst 33258 (20 μg mL^–1), Calcein AM (2 μM), and PPI (8 μg mL^–1) for 2 h. Samples were sequentially imaged on a confocal microscope Leica CM SP5 (Leica, Germany), in 10 z-stack scans (20 μm each). Images were processed using ImageJ software. Fluorescence intensities were assessed for the maximal projections of the z-stacks, and the corresponding Calcein AM/PPI ratio was calculated. Hoechst dye was used to accurately define the Region of Interest (ROI) mask and analyze fluorescence intensities. Three independent experiments were carried out to ensure the reliability and reproducibility of the results. The representative images are shown.

[2] = test system: hiPSC-derived cerebral organoids; test: Cerebral organoid volume growth after treatment (healthy tissue); conditions: fusion system, untreated control 25%
Description: To assess the treatment’s impact on healthy tissue, cerebral organoid volumes were measured using phase-contrast or bright-field confocal microscopy with manually defined regions of interest.

[3] = test system: U87MG-RFP spheroids implanted into cerebral organoids; test: Glioblastoma intergrowth/spreading area in cerebral organoid-U87MG-RFP spheroid fusion system; conditions: for glioblastoma spreading area, Δ 0h-120h, not irradiated: TMZ 100 μM or Ir4 2 μM for 3 h, no blue light
Description: In this study, U87MG-RFP glioblastoma spheroids were preformed over 72 h, implanted into cerebral organoid tissue, and coembedded in Matrigel. […] Samples designated for irradiation were exposed to blue laser light (405 nm, 60 s, 1 mW) and subsequently cultured in drug-free medium for 120 h. Z-stacking confocal imaging and ImageJ analysis quantified the area of glioblastoma spreading (Figure , panels III and IV).
An implant fusion model was established to monitor the distribution of Ir4 within the tumor, represented by the implanted tumorspheres generated from U87MG, and healthy tissue, represented by the hiPSC-derived cerebral organoid. Before the implantation procedure, spheroids derived from U87MG glioblastoma were cultured for 72 h under 3D forming conditions using ULA plates (96-well U-shaped plate, Corning) in DMEM-F12 supplemented with 2% B27, epidermal growth factor (EGF) at 20 ng mL^–1, fibroblast growth factor 2 (FGF2) at 10 ng mL^–1, and BSA (0.15%). Cerebral organoids were generated through a four-step directed differentiation process from human induced pluripotent stem cells (hiPSCs, Gibco). The hiPSCs were cultured on Geltrex matrix (hESC-Qualified, Reduced Growth Factor Basement Membrane Matrix; Gibco) in StemFlex basal medium (DMEM/F12, Ham, 1:1) fully supplemented with StemFlex supplement (Gibco). The preformation of cerebral organoids, involving the formation of embryoid bodies (EBs), was maintained in U-shape ultralow attachment 96-well plates (ULA, Corning) with 9000 hiPSCs per well in fully supplemented Stemdiff Cerebral organoid medium and 10 μM of the rock inhibitor Y27632. The EBs were cultured for 4 days to establish round-shaped EBs with a diameter of approximately 400 μm. Subsequently, 2 EBs per well were transferred to 24-well ULA plates, and differentiation into neural ectoderm was induced for an additional 2 days using the Stemdiff Cerebral Organoid Kit (StemCell Technologies, CA). Following this, early organoids were embedded in the Matrigel matrix (suitable for organoid culture, Corning) and directed toward further differentiation into neuroectoderm. After the initial differentiation phase, early organoids were monitored for the development of optically clear neuroectoderm (characterized by an optically bright, translucent surface) and the formation of large buds of translucent ectoderm that were not radially organized. Postembedding, the organoids were cultured on 6-well ULA plates under continuous orbital shaker agitation (50 rpm). […] The samples were then transferred to confocal Petri dishes containing drug-free cerebral maturation medium and analyzed using a confocal microscope (Leica CM SP5, Leica, Germany). […]

[4] = test system: U87MG spheroids; test: Detection of ROS (CellRox) and PPI in spheroids by confocal microscopy
Description: We evaluated ROS induction in glioblastoma U87MG spheroids treated with Ir4 at its IC50 concentration for 3 h, followed by blue laser light irradiation (405 nm, 60 s, 1 mW). ROS levels were quantified using the CellRox probe, with PPI employed to assess immediate cell death. Z-stack imaging was performed before irradiation and at 1, 15, and 30 min postirradiation (Figure , panel I). Mean fluorescence intensity in the z-stack projections quantified ROS generation (Figure , panel II).
The spheroids were exposed to Ir4 (IC50, U87MG 3D, 72 h) for 3 h or maintained under drug-free conditions (control). Subsequently, the samples were stained with CellRox reagent (5 μM) and PPI (8 μg mL^–1) before being irradiated for 60 s with blue laser light (405 nm, 1 mW). Imaging of the samples was conducted before or immediately after the irradiation (1 min postirradiation) and at defined time intervals (15 and 30 min). The fluorescence scanning was performed sequentially in z-stack mode (10 z-stacks). Postirradiation imaging was conducted for a total of 90 min, with only the data collected up to 30 min being presented and quantified. The experiments were independently replicated in triplicate.

| SMILES | change in calcein AM/PPI ratio with blue light irradiation [1] | change in calcein AM/PPI ratio under dark conditions [1] | increase in cerebral organoid volume over 120 h [2] [%] | glioblastoma spreading area, Δ 0h-120h, irradiated ([3]; Ir4 2 μM 3 h, 405 nm 60 s 1 mW, 120 h drug-free) [fold] | glioblastoma spreading area, Δ 0h-120h, not irradiated ([3]; 120 h drug-free) [fold] | spreading area relative to TMZ ([3]; nonirradiated, Ir4 concentration 50 times lower than TMZ) | PPI fluorescence intensity postirradiation ([4]; 15 and 30 min postirradiation) | ROS level compared to preirradiation level, 1 min ([4]; IC50 3 h, 405 nm 60 s 1 mW, 1 min postirradiation) [fold] | ROS level compared to preirradiation level, 15 min ([4]; IC50 3 h, 405 nm 60 s 1 mW, 15 min postirradiation) [fold] | ROS level compared to preirradiation level, 30 min ([4]; IC50 3 h, 405 nm 60 s 1 mW, 30 min postirradiation) [fold] | ROS level versus untreated controls before laser irradiation ([4]; IC50 (U87MG 3D, 72 h) for 3 h, CellRox, dark) [times] |
| --- | --- | --- | --- | --- | --- | --- | --- | --- | --- | --- | --- |
| Cc1ccc(-c2cc3[n+]4c(c2)-c2cccc[n+]2[Ir-3]42([Cl])([c]4cc5ccccc5cc4-c4n(Cc5ccc(C(F)(F)F)cc5)c5ccccc5[n+]42)[n+]2ccccc2-3)cc1.F[P-](F)(F)(F)(F)F [Ir3] | substantial decrease | insignificant changes |  |  |  |  |  |  |  |  |  |
| CCCCn1c2[n+](c3cc(C(=O)OC)ccc31)[Ir-3]13([Cl])([c]4ccccc4-2)[n+]2ccccc2-c2cc(-c4ccc(C)cc4)cc([n+]21)-c1cccc[n+]13.F[P-](F)(F)(F)(F)F [Ir4] | substantial decrease | significant decrease | 24 | 0.6 | 2.1 | four times smaller | slight but significant increase | 1.8 | 2.3 | 2.5 | 1.8 |
| Cc1ccc(-c2cc3[n+]4c(c2)-c2cccc[n+]2[Ir-3]42([Cl])([c]4c(ccc5c4OCO5)-c4n(Cc5ccc(C(F)(F)F)cc5)c5ccccc5[n+]42)[n+]2ccccc2-3)cc1.F[P-](F)(F)(F)(F)F [Ir5] | substantial decrease | insignificant changes |  |  |  |  |  |  |  |  |  |
| Cn1nnc2c(C(N)=O)ncn2c1=O [Temozolomide, reference compound] |  |  | 21 |  | 8.7 |  |  |  |  |  |  |
